These results are taken from PMC6917776, “Discovery of a chemical probe for PRDM9” (Nature Communications, 2019).

For this assay, the target named is T1, PRDM9 (amino acids: 195–415) (Homo sapiens, UniProt Q9NQV7).
T1 construct: PRDM9 (amino acids: 195–415)
T1 sequence (Q9NQV7 195-415): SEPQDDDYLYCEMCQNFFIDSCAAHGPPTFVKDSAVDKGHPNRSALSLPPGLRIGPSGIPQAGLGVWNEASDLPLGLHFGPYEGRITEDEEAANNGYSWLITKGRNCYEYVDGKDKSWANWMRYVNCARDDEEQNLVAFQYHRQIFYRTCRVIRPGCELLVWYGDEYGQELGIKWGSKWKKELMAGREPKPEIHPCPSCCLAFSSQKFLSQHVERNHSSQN
In words: PRDM9 methyltransferase activity assay (3H-SAM scintillation proximity assay). The class given is biochemical. Conditions: PRDM9, Exp1, Exp2. As to the method:
Methyltransferase activity assays for PRDM9 (amino acids: 195–415) were performed by monitoring the incorporation of tritium-labeled methyl group from ^3H-SAM to H3 (1–25) peptide using scintillation proximity assay (SPA). The enzymatic reactions were performed at 23 °C with 30 min incubation in 20 mM Tris-HCl (pH 7.5), 5 mM DTT, 0.01% Triton X-100 and 1% DMSO containing 71 μM of SAM (5 μM of ^3H-SAM), 4 μM of biotinylated H3 (1–25) peptide and 5 nM of PRDM9. For PRDM7, reactions were performed at 23 °C with 90 min incubation in 20 mM BTP pH 9.0, 5 mM DTT, 0.01% Triton X-100 and 1% DMSO containing 900 μM of SAM (5 μM of ^3H-SAM), 4 μM of biotinylated H3 (1–25) peptide and 100 nM of enzyme. […] To stop the reactions, 10 μL of 7.5 M guanidine hydrochloride was added to 10 μL of reaction mixture, followed by 60 μL of buffer (20 mM Tris, pH 8.0), mixed, and transferred to a 384-well streptavidin coated Flash-plate. After mixing, the mixtures in Flash-plate were incubated for 2 h, and the CPM counts were measured using TopCount plate reader. All enzymatic reactions were performed in triplicate, and IC50 values were determined by fitting the data to Four Parameter Logistic equation using the GraphPad Prism software.
Background: In a scintillation proximity assay essentially only radioactivity close to the scintillant gives light.

The structures appear in SMILES notation.

As to `COc1cc(OC)cc(-c2noc(N3CCN(C)C4(CCN(c5ccccc5)CC4)C3)n2)c1` [MRK-740 -NC], under “1µM compound”, the activity at 1 µM turned out to be 97%. The Activity % runs as follows: (1µM compound, 1 µM) 90%; (10µM compound, 10 µM) 93%. This compound also yielded an activity at 10 µM (10µM compound) of 96%.
